For one assay, the target named is Trypsin. As to conditions: cited from earlier work.
The target in the next assay is γ-secretase (Homo sapiens, UniProt P49768). In words: Aβ sandwich ELISA in supernatants of CHO cells overexpressing human APP and presenilin-1. The class given is cell-based. As to conditions: for Modulation of γ-secretase activity (type): Aβ38/40/42 ELISA, 0.1-40 μM. The procedure:
One-step reactions yielded the desired products in both cases. […] Synthesized compounds were tested for their ability to modulate the γ-secretase product spectrum as previously described. CHO cells with stable overexpression of human APP and presenilin-1 were treated with increasing concentrations of 3 and 4. Subsequently, concentrations of secreted Aβ peptides were detected in cell supernatants by sandwich ELISA using C-terminus specific antibodies that distinguish between Aβ38, Aβ40, and Aβ42 peptide species. […] This pattern of inverse γ-secretase modulation has previously been observed, e.g. with derivatives of the non-steroidal anti-inflammatory drug indomethacin [35]. […] Compounds 3 and 4 can serve as tool compounds and – more importantly – as starting points for an optimization of the pharmacological profile by structural modification. […]
Figure S5. Modulation of γ-secretase activity by designed compounds 3 (A) and 4 (B). Both […]
higher levels of Aβ42. Concentrations of secreted Ab peptides were detected in cell supernatants by sandwich ELISA using C-terminus specific antibodies that distinguish between Aβ38, Aβ40, and Aβ42 peptide species as previously described.
For orientation: An ELISA detects its analyte on a solid surface through an enzyme-linked reagent.

For a further assay, the target named is 5-HT1D receptor (Homo sapiens, UniProt P28221). In words: Cerep GPCR panel, antagonistic effect on 5-HT1D receptor. Format: cell-based.
Chain of 5-HT1D receptor (P28221 whole entry): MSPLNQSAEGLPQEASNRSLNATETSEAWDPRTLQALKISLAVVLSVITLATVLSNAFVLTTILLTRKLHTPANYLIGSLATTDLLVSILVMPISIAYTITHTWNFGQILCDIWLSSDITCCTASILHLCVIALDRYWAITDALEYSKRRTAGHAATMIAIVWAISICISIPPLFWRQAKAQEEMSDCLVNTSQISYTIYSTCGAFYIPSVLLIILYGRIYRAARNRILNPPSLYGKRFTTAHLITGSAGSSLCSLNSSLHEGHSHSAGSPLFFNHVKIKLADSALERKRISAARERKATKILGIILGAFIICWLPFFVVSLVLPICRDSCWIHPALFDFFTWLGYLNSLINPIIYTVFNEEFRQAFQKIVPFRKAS
Another assay has as its target δ2 opioid receptor (Homo sapiens, UniProt P41143). The experiment in a line: Cerep GPCR panel, antagonistic effect on δ2 opioid receptor. Format: cell-based. As to conditions: n = 2.
In a further assay the target is hH3R (Homo sapiens, UniProt Q9Y5N1). The experiment in a line: Competitive binding, displacement of [3H]Nα-methylhistamine at hH3R. The conditions noted are these: averaged over four distinct tests. The protocol: (§1) In order to test for the hypothesis that a combination of the features – as found in compound 7 – might lead to hH4R affinity, compound 7 was selected for synthesis and testing. […] Binding affinity of compound 7 was determined in a competitive binding assay by measuring displacement of radioactively labeled [^3H]histamine bound to hH4R [42]. Membrane preparations of insect Sf9 cells expressing hH4R together with G-protein subunits Gαi2 and Gβ1γ2 were performed to yield the protein. A similar assay was used to measure the activity on hH3R (reference ligand: [^3H]N ^α-methylhistamine).
Chain of hH3R (Q9Y5N1 whole entry): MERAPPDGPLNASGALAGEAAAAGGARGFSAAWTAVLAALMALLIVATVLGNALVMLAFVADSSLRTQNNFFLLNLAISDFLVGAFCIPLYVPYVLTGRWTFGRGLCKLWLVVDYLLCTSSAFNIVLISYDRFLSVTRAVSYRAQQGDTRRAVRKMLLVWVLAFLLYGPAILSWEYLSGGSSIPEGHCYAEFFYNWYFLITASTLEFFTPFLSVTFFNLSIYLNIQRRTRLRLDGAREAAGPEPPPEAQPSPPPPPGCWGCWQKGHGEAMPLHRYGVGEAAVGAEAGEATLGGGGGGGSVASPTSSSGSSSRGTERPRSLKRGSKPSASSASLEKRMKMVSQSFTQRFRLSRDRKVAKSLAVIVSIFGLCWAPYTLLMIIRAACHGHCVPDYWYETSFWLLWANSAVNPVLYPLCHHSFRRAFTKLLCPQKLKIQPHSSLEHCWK
On the technique in general: Displacement assays read how much labelled ligand stays bound in the presence of the test substance.

In the next assay the target is T1, hH4R (Homo sapiens, UniProt Q9H3N8).
T1 construct: made in house; host or cells: insect Sf9 cells (membrane preparations)
T1 sequence (Q9H3N8 whole entry): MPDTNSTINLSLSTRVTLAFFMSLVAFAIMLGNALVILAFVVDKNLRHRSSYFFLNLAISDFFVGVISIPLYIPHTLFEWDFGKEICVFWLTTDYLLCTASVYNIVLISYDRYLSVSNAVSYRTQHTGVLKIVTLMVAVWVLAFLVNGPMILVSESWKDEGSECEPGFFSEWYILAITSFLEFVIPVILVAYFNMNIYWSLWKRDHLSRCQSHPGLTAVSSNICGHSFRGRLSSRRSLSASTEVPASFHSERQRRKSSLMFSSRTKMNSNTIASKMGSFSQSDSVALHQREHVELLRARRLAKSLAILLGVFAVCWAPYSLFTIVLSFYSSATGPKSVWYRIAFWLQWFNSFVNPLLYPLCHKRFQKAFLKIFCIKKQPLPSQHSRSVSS
In words: Competitive binding, displacement of [3H]histamine, Sf9 membranes expressing hH4R. As to conditions: three measurements. The protocol:
as §1

The next assay concerns the target κ opioid receptor (Homo sapiens, UniProt P41145).
The next assay deals with other GPCRs in the panel. The experiment in a line: Cerep panel, other human GPCRs. Format: cell-based. The conditions noted are these: remaining GPCRs of the 30-receptor panel.
The next assay deals with Thrombin. As to conditions: cited from earlier work.
For a further assay, the target named is Trypsin (bovine). Further details: method as in PMID 15771442. The conditions noted are these: cited from earlier work.

Broadly, the Ki is the equilibrium dissociation constant of an inhibitor or competing ligand from its target. A word on the IC50: it is the concentration needed to halve the response being measured.

Chain of δ2 opioid receptor (P41143 whole entry): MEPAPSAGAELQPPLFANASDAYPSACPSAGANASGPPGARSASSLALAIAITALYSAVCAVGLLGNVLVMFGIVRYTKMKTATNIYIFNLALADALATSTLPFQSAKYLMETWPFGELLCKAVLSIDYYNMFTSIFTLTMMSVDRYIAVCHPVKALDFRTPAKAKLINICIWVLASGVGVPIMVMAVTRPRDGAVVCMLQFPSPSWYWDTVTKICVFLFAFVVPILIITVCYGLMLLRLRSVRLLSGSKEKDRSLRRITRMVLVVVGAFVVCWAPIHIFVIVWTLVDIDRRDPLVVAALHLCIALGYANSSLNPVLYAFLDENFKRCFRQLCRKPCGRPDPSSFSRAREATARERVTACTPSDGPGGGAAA
Chain of κ opioid receptor (P41145 whole entry): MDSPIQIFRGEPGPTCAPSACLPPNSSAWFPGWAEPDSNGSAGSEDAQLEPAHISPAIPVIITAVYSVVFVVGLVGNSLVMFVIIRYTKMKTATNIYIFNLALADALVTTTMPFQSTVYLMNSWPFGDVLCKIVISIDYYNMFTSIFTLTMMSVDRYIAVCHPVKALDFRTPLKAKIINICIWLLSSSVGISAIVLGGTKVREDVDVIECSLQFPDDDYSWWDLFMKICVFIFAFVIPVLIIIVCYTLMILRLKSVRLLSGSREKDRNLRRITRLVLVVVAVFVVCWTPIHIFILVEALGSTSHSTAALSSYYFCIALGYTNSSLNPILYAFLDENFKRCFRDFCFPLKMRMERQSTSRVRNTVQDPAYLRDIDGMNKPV

With `CN(C)C(=O)COC(=O)Cc1ccc(OC(=O)c2ccc(NC(=N)N)cc2)cc1` [Camostat], at Trypsin, the Ki was 50.6 nM.
As to `COc1cc(-n2c(C)ccc2C)c(OC)cc1NC(=O)c1ccccc1` [Compound 3], on γ-secretase, the “Modulation of γ-secretase activity (type)” value is on record as “inverse modulators”. In addition, the Aβ38 levels result on γ-secretase (secreted Aβ38, CHO cells, increasing concentrations) is reported as “decrease”. For the same compound, on γ-secretase (secreted Aβ42, CHO cells, increasing concentrations), the Aβ42 levels result is on record as “dose-dependent increase”.
Consider `COc1ccc(N2CCN(C(=O)c3ccc(-c4cc(C(F)(F)F)ccc4Cl)o3)CC2)cc1` [Compound 4], for which the “Modulation of γ-secretase activity (type)” value at γ-secretase was “inverse modulators”.
As to `Clc1cccc(-c2cn(CCOCCN3CCNCC3)nn2)c1` [Compound 7], the “residual activity of the receptor” value at 5-HT1D receptor (antagonistic effect, n = 2) is 62%; on δ2 opioid receptor, 76%. For the same compound, the Ki at hH3R came to 466000 ± 209000 nM; at hH4R it was 436000 ± 137000 nM. The “agonistic effect, % of the effect of the reference agonist U50488” value on κ opioid receptor came out at 21%. Moreover, the “response at other GPCRs in the panel” value with other GPCRs in the panel is given as “only weak responses in the single digit or low double-digit percent range”.
On to `CN[C@H](Cc1ccccc1)C(=O)N1CCC[C@H]1C(=O)N[C@H](C=O)CCCN=C(N)N` [Efegatran], for which the Ki on Thrombin was 18 nM; on Trypsin (bovine), 9.1 nM.
Take `N=C(N)Nc1ccc(C(=O)Oc2ccc(SCCN3C(=O)CCC3=O)cc2)cc1` [Patamostat]: the IC50 with Thrombin is 1900 nM; with Trypsin, 39 nM.
On to `CC1=CCN(C(=O)C(Cc2cccc(C(=N)N)c2)NS(=O)(=O)c2ccc3c(c2)CN(C)CC3)C(C(=O)O)C1` (stereo not drawn) [UK-156406], for which the Ki at Thrombin was 0.46 nM; at Trypsin, 26 nM.
Consider `CSc1ccc2c(c1)C(N1CCN(C)CC1)Cc1ccccc1S2` (stereo not drawn) [methiothepin, reference compound], for which the IC50 on 5-HT1D receptor (reference compound) came out at 1100 nM.

These data come from article PMC3280956, “DOGS: Reaction-Driven de novo Design of Bioactive Compounds” (PLoS Computational Biology, 2012).
